Data set [1] is described as follows: Inhibition of mushroom TyM1 preincubated for 5 mins followed by addition of L-DOPA as substrate measured for 5 mins by spectroscopic method. Set-up: species or system Agaricus bisporus.
Data set [2] deals with T1, Tyrosinase (Homo sapiens, UniProt P14679).
T1 sequence (P14679 whole entry): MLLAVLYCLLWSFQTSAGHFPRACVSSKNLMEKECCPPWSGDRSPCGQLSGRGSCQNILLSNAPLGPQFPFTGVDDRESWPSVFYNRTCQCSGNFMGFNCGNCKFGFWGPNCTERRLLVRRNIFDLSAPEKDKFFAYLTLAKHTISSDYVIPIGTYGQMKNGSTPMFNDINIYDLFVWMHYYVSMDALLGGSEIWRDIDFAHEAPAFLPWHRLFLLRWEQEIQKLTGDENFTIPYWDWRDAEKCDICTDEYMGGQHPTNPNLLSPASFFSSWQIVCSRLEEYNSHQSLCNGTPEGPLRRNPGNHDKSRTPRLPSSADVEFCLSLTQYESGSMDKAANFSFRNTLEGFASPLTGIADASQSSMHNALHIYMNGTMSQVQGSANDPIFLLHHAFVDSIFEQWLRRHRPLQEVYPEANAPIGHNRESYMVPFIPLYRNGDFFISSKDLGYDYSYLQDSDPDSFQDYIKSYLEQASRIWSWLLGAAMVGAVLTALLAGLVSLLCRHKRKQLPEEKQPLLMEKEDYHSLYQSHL
Description: Inhibition of tyrosinase in human MNT1 cell lysate pretreated prior to addition of L-DOPA as substrate measured after 3 hrs. Type of data set: cell-based.

Data set [3] deals with T1, Tyrosinase. Kind of data set: Inhibition of tyrosinase in human MNT1 cells assessed as suppression of melanin biosynthesis measured after 96 hrs. Type of data set: cell-based.
The nature of data set [4]: Cytotoxicity against human MNT1 cells.
Data set [5] addresses T1, Tyrosinase. Kind of data set: Inhibition of recombinant human tyrosinase expressed in baculovirus infected Sf9 cells assessed as diphenolase activity using L-DOPA as substrate by UV-vis spectrophotometry.
Data set [6] concerns the target T2, Tyrosinase (Homo sapiens) (UniProt P14679).
T2 sequence (whole entry): T1 sequence (P14679 whole entry)
To be noted: Sf9.

Molecules are shown by their SMILES.

In general, IC50 refers to the midpoint of a concentration-inhibition curve. On to `O=C1/C(=C/c2ccc(O)cc2O)Oc2cc(O)ccc21`, for which the half-maximal inhibitory concentration (IC50) in data set [1] is above 1000 µM.
In the case of `O=C1/C(=C/c2ccc(O)cc2O)Oc2cc(O)cc(O)c21`, the concentration for half-maximal inhibition (IC50) in data set [1] was 300 µM.
The Ki is the dissociation constant of the complex between target and ligand, obtained from inhibition or displacement. As for `O=C1/C(=C/c2ccc(=O)n(O)c2)Oc2cc(O)ccc21`, the IC50 in data set [2] was 16.6 µM; in data set [3] it was 85.3 µM; in data set [4] it was above 500 µM; in data set [1], 1.5 µM. For the same molecule, the Ki in data set [5] is 0.35 µM.
On to `O=C1/C(=C/c2ccc(=O)n(O)c2)Oc2cc(O)cc(O)c21`, for which the IC50 in data set [2] was 34 µM; in data set [3] it was 119 µM; in data set [4], above 500 µM. Also, the Kic in data set [6] worked out at 1.2 µM.
For `O=C1/C(=C/c2ccc(=O)n(O)c2)Oc2cccc(O)c21`, in that order: 30 µM, 120 µM, 80 µM and 1.02 µM.
`O=C1/C(=C/c2ccc(O)cc2O)Oc2cccc(O)c21` displayed an IC50 in data set [1] of 9 µM.
`O=c1cc(CO)occ1O` [KOJIC ACID]: the half-maximal inhibitory concentration (IC50) in data set [4] was above 80000 µM.
